# Data reported in patent US6903116B2, “Methods of treating cancer using a heat shock factor activity inhibitor” (Kaneka Corp., priority 1997, dated 2005).
# Tests used:
# COLO320DM cells = test: Cell heat resistance suppression, colony formation assay; format: cell-based; details: 100 μM; pre-heating 42° C. 90 min, then 45° C. 60 min; all colonies counted
# Description: COLO320DM cells were pre-treated with the above-described compounds at 37° C. for 60 min, followed by pre-heating by application of a heat shock of 42° C. for 90 min. The cells were further treated at 37° C. for 60 min. Then, the media were replaced respectively with compound-free media, and the cells were further incubated at 37° C. for 60 min. Thereafter, the cells were treated at 45° C. for 60 min, and cultured for about 10 days followed by measurement of the number of surviving cells as the number of colonies using a colony formation assay. […] The number of colonies formed without the treatment at 45° C. was substantially the same among all of the drugs.
# The compounds of the present invention clearly confirmed to have the inhibitory effect on the acquisition of cell heat resistance, which is greater than that obtained with the known inhibitor quercetin. The surviving fraction was calculated according to the following formula: Surviving Fraction (%)=A/B×100 • A: Cell Survival Fraction With Treatment at 45° C. for 60 min • B: Cell Survival Fraction Without Treatment at 45° C. Cell Survival Fraction=C/D • C: Number of Surviving Cells • D: Number of Cells Seeded
# HSP70 = test: HSP expression induction suppression by 2-dimensional electrophoresis, HSP70; format: cell-based; set-up: key: ↑↑↑: Not Suppressed (Strongly Induced); ↓: Slightly Suppressed; ↓↓: Suppressed; ↓↓↓: Strongly Suppressed; details: 100 μM; COLO320DM cells; compared with DMSO control
# Description: (§1) COLO320DM cells were pre-treated with Compounds 101, 102 and 103 at 37° C. for 60 min, followed by application of a heat shock at 42° C. for 90 min, and recovery at 37° C. for 2 hours. Then, the media were replaced with methionine-free media, and the cells were treated at 37° C. for 1 hour with ^35S-methionine to label newly synthesized proteins.
# (§2) The cell lysate was obtained, subjected to an isoelectric focusing as the first dimension and then to an expansion by SDS-PAGE as the second dimension. Then, the gel was subjected to fluorography so as to compare between the amounts of HSP synthesized with and without heat induction. Comparison between the amounts of β-actin synthesized as an internal control with and without heat induction confirmed that the other proteins were normally synthesized.
# β-actin = test: 2-dimensional electrophoresis, β-actin internal control; format: cell-based; details: 100 μM; COLO320DM cells
# Description: as §1, §2
# HSP40 = test: HSP expression induction suppression by 2-dimensional electrophoresis, HSP40; format: cell-based; set-up: key: ↑↑↑: Not Suppressed (Strongly Induced); ↓: Slightly Suppressed; ↓↓: Suppressed; ↓↓↓: Strongly Suppressed; details: 100 μM; COLO320DM cells; compared with DMSO control
# Description: as §1, §2
# [1] = system: HSP70 (inducible type) mRNA; test: Transcription suppression of HSP70 (inducible type) mRNA by Northern hybridization; format: cell-based; details: COLO320DM cells, heat shock 42° C. 90 min; for Transcription Amount of HSP70 (induced type): 100 μM, DMSO = 1.0
# Description: COLO320DM cells (ATCC CCL-220) were pre-treated with Compounds 101, 102 and 103 in a CO2 incubator at 37° C. for 60 min using 10% FCS, DMEM medium (Gibco BRL), after which the cell was subjected to a heat shock of 42° C. for 90 min. Immediately thereafter, the treated cells were collected, and total RNA was extracted from the cells by using the acid guanidine thiocyanate phenol chloroform (AGPC) method. The total RNA was electrophoresed, transferred to a nylon filter, and the amounts of HSP mRNA were compared among experimental groups by using the Northern hybridization method. cDNA of HSP70 (inducible type) labeled with [α-^32P] dCTP was used as a probe, and cDNA of β-actin was used as an internal control. […] Table 2 provides comparison in the amount of transcription of HSP70 (inducible type) among cells which were subjected to a heat shock after treatment with the respective compounds, with the amount of induced transcription in a cell treated with the control solvent DMSO being 1.0.
# HSP100 = test: HSP expression induction suppression by 2-dimensional electrophoresis, HSP100; format: cell-based; set-up: key: ↑↑↑: Not Suppressed (Strongly Induced); ↓: Slightly Suppressed; ↓↓: Suppressed; ↓↓↓: Strongly Suppressed; details: 100 μM; COLO320DM cells; compared with DMSO control
# Description: as §1, §2
# SV40 early promoter = test: Reporter protein expression suppression, stable transformant B (SV40 early promoter β-galactosidase); format: cell-based, Chinese hamster; details: heat shock 42° C. 90 min, relative to DMSO
# HSP47 = test: HSP expression induction suppression by 2-dimensional electrophoresis, HSP47; format: cell-based; set-up: key: ↑↑↑: Not Suppressed (Strongly Induced); ↓: Slightly Suppressed; ↓↓: Suppressed; ↓↓↓: Strongly Suppressed; details: 100 μM; COLO320DM cells; compared with DMSO control
# Description: as §1, §2
# [2] = system: promoter region including the HSE sequence for HSP47; test: Reporter protein expression suppression, stable transformant A (HSE/HSP47 promoter β-galactosidase); format: cell-based, Chinese hamster; details: heat shock 42° C. 90 min, relative to DMSO
# Excerpt: A plasmid was produced in which a β-galactosidase gene was located downstream of a promoter region including the HSE sequence for HSP47. […] Chinese hamster ovary (CHO) cells were transfected with the plasmid to obtain stable transformant […]. These stable transformants were pre-treated with Compounds 101, 102 and 103 above and Compound C (1-acetyl-3-benzo-(1,3)dioxole-5-ylmethylene-pyrrolidin-2-one; this compound is represented by general formula (I) of the present invention wherein X is —CH2— and R^1 is acetyl) in a CO2 incubator at 37° C. for 60 min. Then, the transformants were subjected to a heat shock of 42° C. for 90 min, recovered at 37° C. for 2 hours, and incubated at a room temperature for 30 min with 4-methylumbelliferyl-β-D-galactoside as a substrate for the activity of β-galactosidase expressed in the cell. Then, the fluorescence was measured (excitation at 365 nm, emission at 450 nm). The amount of β-galactosidase expressed after a treatment with test compounds or the known HSF and HSP inhibitor quercetin as a control agent was divided by the amount of β-galactosidase expressed after a treatment with dimethylsulfoxide (DMSO) as a solvent control, thereby calculating the expression rate (%) as shown in Table 1.
# [3] = Antidepressant effect in forced swimming test; format: in vivo; details: 100 mg/kg orally once, Wistar male rat; for No-Movement Period: 5-minute test; for Suppression Rate (%): versus physiological saline
# Description: The experiment was conducted as a partial modification of the Porsolt, R. D. et al. method (Eur. J. Pharm., 47: 379, 1978). In particular, a Wistar male rat (5 weeks of age, weight: 130-150 g) was dropped into water (temperature: 25° C.) about 15 cm deep in a glass cylinder having an inner diameter of 18 cm and a height of 40 cm. The rat was taken out after 15 min, dried and put back into a home cage. […] One hundred mg/kg of each test compound, suspended in a physiological saline, was orally administered once before the 5-minute test so as to examine the antidepression effect. One hundred mg/kg of imipramine, a known antidepressant, as a control drug and 5 ml/kg of a physiological saline as a control were similarly orally administered. A shortened no-movement period was calculated as a suppression rate according to the following formula: Suppression Rate (%)=(E−F)/E×100 • E: No-Movement Period with Physiological Saline • F: No-Movement Period with Test Compound
# HSP90 = test: HSP expression induction suppression by 2-dimensional electrophoresis, HSP90; format: cell-based; set-up: key: ↑↑↑: Not Suppressed (Strongly Induced); ↓: Slightly Suppressed; ↓↓: Suppressed; ↓↓↓: Strongly Suppressed; details: 100 μM; COLO320DM cells; compared with DMSO control
# Description: as §1, §2
# [4] = system: murine carcinoma cell (SCC VII); test: Inhibitory effect on cancer heat resistance acquisition, tumor growth delay assay; format: in vivo, C3H/He mice
# Description: A murine carcinoma cell (SCC VII) was implanted in the right leg of C3H/He mice (male, about 10 mice for each group), and the experiment was started when the tumor became about 1 cm in diameter. The tumor was heated by soaking the tumor site of each mouse under general anaesthesia into a constant temperature bath at 44° C. The inhibitory effect on the heat resistance acquisition by cancer cell was examined by a growth delay assay on the tumor. Two hundred mg/kg of each test compound, suspended in an olive oil, was intraperitoneally administered once 6 hours before the first heating. The first heating was performed for 10 minutes (H1), and the second heating was performed for 30 minutes (H2), with a recovery period of 8 hours at room temperature between the first heating and the second heating.
Compound,Surviving Fraction (%) (COLO320DM cells),"HSP Induction by Heat Shock Treatment, HSP70 (HSP70)",β-actin synthesis by Heat Shock Treatment (internal control) (β-actin),"HSP Induction by Heat Shock Treatment, HPS40 (HSP40)",Transcription Amount of HSP70 (induced type) [1],Suppression of mRNA transcription of HSP70 (in words) [1],"HSP Induction by Heat Shock Treatment, HSP100 (HSP100)",Expression Rate (%) Transformant B (SV40 early promoter; 5 μM) [%],Expression Rate (%) Transformant B (SV40 early promoter; 50 μM) [%],"HSP Induction by Heat Shock Treatment, HSP47 (HSP47)",Expression Rate (%) Transformant A ([2]; 5 μM) [%],Expression Rate (%) Transformant A ([2]; 50 μM) [%],No-Movement Period [3] [s],Suppression Rate (%) [3] [%],"HSP Induction by Heat Shock Treatment, HSP90 (HSP90)",Expression Rate (%) Transformant B (SV40 early promoter; 100 μM) [%],Expression Rate (%) Transformant A ([2]; 100 μM) [%],"Mean days before tumor tripled ([4]; 200 mg/kg i.p. 6 hours before first heating, 44° C. 10 min (H1), 8 hr, 30 min (H2)) [days]","Mean days before tumor tripled ([4]; 200 mg/kg i.p., 44° C., 30 min heating) [days]","Mean days before tumor tripled ([4]; 200 mg/kg intraperitoneally once, no heating) [days]"
O=C1NCC/C1=C\c1ccc2c(c1)OCO2 [Compound 101],<1,↓↓↓,no change,↓↓↓,0.03,specifically and significantly suppressed,↓↓↓,90,61,↓↓↓,46,1,145,29,↓↓↓,–,–,–,–,–
O=CN1CC/C(=C\c2ccc3c(c2)OCO3)C1=O [Compound 102],<1,↓↓↓,no change,↓↓↓,0.04,specifically and significantly suppressed,↓↓↓,88,75,↓↓↓,57,3,–,–,↓↓↓,69,0,12.6,13.3,8.4
O=C1NCCC/C1=C\c1ccc2c(c1)OCO2 [Compound 103],<1,↓↓↓,no change,↓↓↓,0.1,specifically and significantly suppressed,↓↓↓,93,62,↓↓↓,47,10,90,56,↓↓↓,46,2,–,–,–
"CC(=O)N1CCC(=Cc2ccc3c(c2)OCO3)C1=O [Compound C, 1-acetyl-3-benzo-(1,3)dioxole-5-ylmethylene-pyrrolidin-2-one]",–,–,–,–,–,–,–,91,88,–,40,11,–,–,–,–,–,–,–,–
"CN(C)CCCN1c2ccccc2CCc2ccccc21 [Imipramine, imipramine, reference compound]",–,–,–,–,–,–,–,–,–,–,–,–,180,12,–,–,–,–,–,–
"O=c1c(O)c(-c2ccc(O)c(O)c2)oc2cc(O)cc(O)c12 [Quercetin, quercetin, reference compound]",6,↓,no change,↓↓,0.4,–,↓,96,82,↓↓,99,25,–,–,↓,58,6,–,–,–
